# Source: US12516052B2, “Methyltransferase 5 (PRMT5) inhibitors and methods of treatment” (THE TRUSTEES OF INDIANA UNIVERSITY, priority 2016, dated 2026)
# Entries after “also recorded” stand apart in the source; their conditions may differ.
# Assays:
# [1] = test system: NF-κB; assay: NF-κB luciferase assay in PANC1 cells; type: cell-based; conditions: increasing concentrations
# From the text: Previously, it was discovered that PRMT5 activates NF-κB through methylation of its p65 subunit in HEK293 cells (Wei et al., Proc Natl Acad Sci USA, 2013; 110: 13516-13521; Wei et al., Cell Cycle, 2013; 13: 32-41). As shown in FIGS. 11A and 11B, overexpression of PRMT5 enhances NF-κB activity, while PRMT5 knockdown causes the opposite effect in both PANC1 (FIG. 11A) and HT-29 (FIG. 11B) cells. To determine if compound (IIa) decreases NF-κB activity, cells transfected with a NF-κB luciferase construct were treated with increasing concentrations of compound (IIa) or the control compound EPZ015666.
# [2] = test system: PDAC cells (PANC1, MiaPaCa2 and AsPC1); assay: MTT cell viability assay in PDAC cell lines; type: cell-based
# Experimental: The PRMT5 inhibitory activity of the compounds from the screen was confirmed using both AlphaLISA and an MTT [(3-(4,5-dimethylthiazolyl-2)-2,5-diphenyltetrazolium bromide)] assay (PerkinElmer, Waltham, MA). For the MTT assay, cells were seeded at 90% confluence in 96-well plates and titrated with different dosages of compound (IIa) for 4 days. Media was then removed and 100 μl of MTT (Sigma-Aldrich, St. Louis, MO) was added per well. Cells were incubated for 2 hours at 37° C. before adding 100 μl of DMSO to each well and quantified with the SYNERGY™ H1 Multi-Mode Reader (BioTek Instruments Inc., Winooski, VT). The expression of PRMT5 was examined in pancreatic ductal adenocarcinoma cells at multiple stages of disease progression and in multiple colorectal cancer cell lines. Pancreatic control (HPNE) and cancer cell lines (PANC1, MiaPaCa2 and AsPC1) were grown in Dulbecco's Modified Eagle Medium (DMEM) (GE Healthcare, Little Chalfont, UK), supplemented with 1% of penicillin/streptomycin, 10% fetal bovine serum (FBS). Colon control (FHC) and cancer (HT29, HCT116, and DLD1) cell lines were maintained in RPMI 1640 Medium (Roswell Park Memorial Institute Medium) (GE Healthcare, Little Chalfont, UK), containing 1% penicillin/streptomycin and 10% FBS, while FHC cells were cultured under the same condition with further addition of 25 mM HEPES (4-(2-hydroxyethyl)-1-piperazineethanesulfonic acid), 10 ng/ml cholera toxin, 0.005 mg/ml insulin, 0.005 mg/ml transferring, and 100 ng/ml hydrocortisone. All cell lines were cultured at 37° C. under 5% CO2. The PDAC and CRC cell lines described above were treated with increasing concentrations of compound (IIa) or the commercially available PRMT5 inhibitor EPZ015666 [drawing 12] and quantified for cell viability using the MTT assay described above. […] A soft agar experiment was also performed to determine the effect of compound (IIa) on colony growth.
# [3] = test system: methamphetamine-treated rats; assay: Striatal neurotransmitter levels (HPLC) in methamphetamine-treated rats; type: in vivo; conditions: methamphetamine 7.5 mg/kg ×4, then 4 injections of 1 mg/kg at 12 hour intervals, vs vehicle
# Experimental: Rats were given methamphetamine treatment 7.5 mg/kg, 4 injections spaced out at 2 hours each. Then, 4 injections of 1 mg/kg of compound (IIa) or vehicle control were given at 12 hours, 24 hours, 36 hours, and 48 hours after the last methamphetamine injection. Rats were sacrificed 24 hours after the last injection and neurotransmitter levels were quantified in the striatum using high performance liquid chromatography (HPLC).
# [4] = test system: NF-κB target genes (TNFα and IL8); assay: qPCR of NF-κB target genes in PANC1 cells; type: cell-based; conditions: treated vs untreated
# Experimental: Furthermore, experiments were performed to determine if PRMT5 inhibition by compound (IIa) could decrease the expression of NF-κB target genes (e.g., pro-inflammatory cytokines TNFα and IL-8). Briefly, HT29 and PANC1 cells were treated with or without compound (IIa), and target gene expression was analyzed by quantitative PCR.
smiles,measurement,setting,value
Cc1ccc(Nc2nc(NCCN(C)C)nc3c2cnn3-c2ccccc2)cc1C [compound (IIa)],"NF-κB activation (luciferase), PANC1",[1],corresponding decrease in NF-κB activation
same,"cell viability in PDAC cells (PANC1, MiaPaCa2, AsPC1), MTT",[2]; increasing concentrations,decreased significantly
same,IC50,"[2]; range over PANC1, MiaPaCa2 and AsPC1",2 to 4 µM
same,dopamine levels in the striatum,[3],increase
same,serotonin levels in the striatum,[3],increase
same,"IL8 expression (qPCR), PANC1",[4],significant decrease; also recorded: dramatically decreased
same,"TNFα expression (qPCR), PANC1",[4],significant decrease; also recorded: dramatically decreased
